Patent US5043342A (priority 1988, dated 1991)
Where a name gives a salt, the structure may show the parent alone. Read-outs that look alike come from different tables or passages of the source.

What was measured:
[1] = target: muscarinic receptors; assay: Radioligand binding: displacement of the muscarinic agonist 3H-Oxotremorine-M (3H-OXO-M) from rat cerebral cortex; design: species or system Hooded Lister rats; conditions: 2 nM 3H-OXO-M, rat cerebral cortex homogenate, 2 mM magnesium chloride, 37° C., 30 min, tested as the oxalate salt
[2] = target: muscarinic receptors; format: binding, Hooded Lister rats; conditions: 0.27 nM 3H-QNB, rat cerebral cortex homogenate, 37° C., 30 min, tested as the oxalate salt

Row | Structure (SMILES) | IC50 [1] [nM] | IC50 [2] [nM] | IC50 ([1]; oxalate salt) [nM] | IC50 ([2]; oxalate salt) [nM]
1 | CCc1noc([C@@H]2CN3CC[C@@H]2C3)n1 (relative stereo) [Example E1, (±) exo-3-(3-Ethyl-1,2,4-oxadiazol-5-yl)-1-azabicyclo-[2.2.1]heptane oxalate salt] | 31 | 940 | – | –
2 | CCc1noc(C2CN3CCC2C3)n1 (single isomer, unassigned; (+)) [Example E2, (+) exo-3-(3-Ethyl-1,2,4-oxadiazol-5-yl)-1-azabicyclo-[2.2.1]heptane oxylate salt] | 26 | 1590 | – | –
3 | CCc1noc(C2CN3CCC2C3)n1 (single isomer, unassigned; (-)) [Example E3, (-) exo-(3-Ethyl-1-1,2,4-oxadiazol-5-y1)-1-azabicyclo-[2.2.1]heptane oxalate salt] | – | – | 36 | 725
